“And” between values parts separate entries of the source, which are not always exact repeats. Identical values can stand only once.
Columns and labels:
[1] = tested on: bovine serum; assay: Reaction with serum (Schiff base formation): free compound and recovery; conditions: After 24 hours
Procedure: To recover such a compound in a free state from plasma, it is required to add a large amount of a water-miscible organic solvent (methanol, ethanol, acetone, acetonitrile, etc.) to the plasma, acidify the mixture (pH 3.0 or below) and then allow it to stand at room temperature for about 1 week. […] Ascochlorin, Compound-6 or Compound-14 is dissolved in a small amount of an organic solvent and added to serum.
At definite points, the serum was sampled and divided into 2 portions. Ten times as much acetonitrile was added to one of these portions and the mixture was centrifuged. Then the free compound in the serum was determined. To the other portion, 10 times as much acetonitrile containing 1% of acetic acid was added. After allowing to stand at room temperature for 1 week, the mixture was centrifuged and the free compound was determined (FIG. 10).

[2] = molecular target: T1, RAR (Homo sapiens, UniProt P10276); assay: RAR reporter gene (luciferase) transfer assay in COS-1 cells; type: cell-based; conditions: control lot = 1
T1 construct: expressed in transfected cells; host or cells: COS-1 cells
T1 sequence (P10276 1-462): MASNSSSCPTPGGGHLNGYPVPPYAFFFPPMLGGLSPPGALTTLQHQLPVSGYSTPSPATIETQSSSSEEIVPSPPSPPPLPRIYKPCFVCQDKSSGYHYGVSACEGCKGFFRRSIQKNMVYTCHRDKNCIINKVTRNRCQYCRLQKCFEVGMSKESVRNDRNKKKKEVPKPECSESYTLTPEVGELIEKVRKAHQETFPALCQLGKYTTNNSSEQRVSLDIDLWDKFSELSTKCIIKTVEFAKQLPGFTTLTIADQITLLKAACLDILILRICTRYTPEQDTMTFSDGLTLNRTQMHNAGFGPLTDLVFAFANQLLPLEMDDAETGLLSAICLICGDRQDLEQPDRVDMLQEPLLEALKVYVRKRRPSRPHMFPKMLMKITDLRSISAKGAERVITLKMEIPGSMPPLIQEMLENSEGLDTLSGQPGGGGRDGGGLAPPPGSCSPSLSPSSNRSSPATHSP
Source text: Each value means the degree of increase in the luciferase activity, which is expressed by referring the luciferase activity in the control lot as to 1, caused by the addition of the corresponding compound.
As a substitute for a plasmid containing a luciferase gene under the regulation in expression by RXR response element (pRXRL:RXRE-SV40 luciferase), and the RXRα expression plasmid (pRXRα); a plasmid containing a luciferase gene under the regulation in expression by RXR response element (pRARL:RASE-SV40 luciferase), and a […] (pRARα) were transferred into COS-1 cells. Transfectants with these plasmids and the compound of the present invention (concentration: 10^−4 to 10^−7 M) were added to the culture.
After sucking off the medium from the Petri dish, […] of a cultured cell lysing solution (25 mM Tris phosphate buffer (pH 7.8), 2 mM 1,2-diaminocyclohexane-N, N,N′,N′-tetraacetate, 10% glycerol, 1% Triton X-100) was added and the cells were peeled off with a rubber policeman and collected. After completely disrupting the cells by freezing and melting, the cells were centrifuged at 4° C. (15,000 rpm, 2 min) and the supernatant thus obtained was employed as a sample for measurement. To 20 ml of the supernatant, 100 ml of a luciferase substrate solution (2.14 mg of Co-A, 100 ml of 470 mM D-Luciferin, 200 ml of 530 mM ATP, 2 ml of DTT-Tricine buffer (pH 7.8)) was added and the fluorescence intensity was measured with a luminometer (ATTO Luminosensor AB-2000). To measure the β-galactosidase for determining the gene transfer efficiency, using a Luminescent β-galactosidase detection kit II (Clontech), fluorescence intensity was measured by a luminometer.

[3] = tested on: male ICR and ddY mice; assay: Serum total cholesterol lowering effect in mice; type: in vivo, mouse; conditions: 8 days; for Serum total cholesterol, % change: vs control; for Serum total cholesterol: Mean±SE
Source text: Effect of serum cholesterol lowering agents varies among animals. Namely, some agents which are effective on a certain animal exert […] on others. For example, compactin, which is an HMG CoA reductase inhibitor, cannot lower the serum total cholesterol level when administered to rodents such as rat or mouse. This is because even though HMG CoA reductase is inhibited in the rodent liver, the enzyme is biosynthesized in an amount in excess of that for compensating the inhibition so that the inhibitory effect is negated. Accordingly, it is favorable to calibrate the effect of lowering serum total cholesterol level in as many animals as possible. Concerning the effect of the compounds of the present invention on the serum total cholesterol level, an assay was made with the use of mice. After adding these compounds to a standard powdery feed for rat and mouse, the resultant mixtures were molded into pellets and given for 8 days to male ICR and ddY mice aged 5 weeks. In the afternoon of the day 8, the blood of each animal was collected from the heart and the total cholesterol in the serum was determined. The doses were determined as the maximum dose, in which body weight gain was not suppressed after orally administering for 1 week, and as the ¼ dose thereof.
Each value is represented in Mean±SE (n=10). a) In the case of Compound-1, the control group consisted of 23 animals while the 0.04% and 0.01% groups each consisted of 12 animals.

[4] = tested on: male Wistar rats; assay: Oral administration of Compound-5 to rats: toxicity and Compound-1 in the blood; conditions: rat, in vivo
Procedure: Male Wistar rats (n=4) weighing about 200 g were employed and the concentration of Compound-1 contained in the serum was expressed in mean±SE (FIG. 9).
In FIG. 9, open circles show a case wherein Compound-5 was solubilized with HCO-60 and orally administered in a dose of 2 mg/kg.
Solid circles show a case wherein Compound-5 was suspended in an acacia solution and orally administered in a dose of 20 mg/kg. Per part of the serum collected with the passage of time, ethanol containing 1% of acetic acid was added and the mixture was allowed to stand in the dark at room temperature for 7 days. Then Compound-1 was determined by high performance liquid chromatography.
Open squares show a case wherein Compound-5 was suspended in an acacia solution and orally administered. Then the blood was collected at definite points and Compound-1 was determined by high performance liquid chromatography immediately thereafter. […] Separately, Compound-5 suspended in an acacia solution was orally administered to rats having been cannulated into the portal vein. Then the portal blood was collected with the passage of time and Compound-1 was determined.

Row | Compound | free compound in serum [1] | degree of increase in the luciferase activity, RAR vector ([2]; 5 × 10^−6 M) | Serum total cholesterol, % change ([3]; 0.01% in feed) | Serum total cholesterol ([3]; 0.01% in feed) | Serum total cholesterol ([3]; 0.04% in feed) | degree of increase in the luciferase activity, RAR vector ([2]; 10^−6 M) | Serum total cholesterol, % change ([3]; 0.04% in feed) [%] | toxicity when present in a free state in the blood [4] | degree of increase in the luciferase activity, RAR vector ([2]; 4 × 10^−7 M) | degree of increase in the luciferase activity, RAR vector ([2]; 10^−5 M)
1 | COc1c(Cl)c(C)c(C=O)c(O)c1C/C=C(C)/C=C/[C@@]1(C)[C@H](C)CCC(=O)[C@@H]1C [Compound-6, 4-O-methylASC] | scarcely detected | 35 | −16% and −13% | 93 ± 4.4 mg/dL and 103 ± 1.2 mg/dL | 92 ± 3.3 mg/dL and 75 ± 4.4 mg/dL | – | – | – | – | –
2 | 3-[5-[l(R),2(S),6(S)-trimethyl-3-oxocylohexyl]-3-methyl-2,4-pentadienyl]-2,4-dihydroxy-5-chloro-6-methylbenzaldehyde [Compound-1] | – | – | −11% | 138 ± 5.1 mg/dL | 131 ± 6.7 mg/dL | 30 | −15 | strong toxicity | – | –
3 | CC(/C=C/C1(C)C(C)C=CC(=O)C1C)=C\Cc1c(O)c(Cl)c(C)c(C=O)c1O (stereo not shown) [Compound-26] | – | – | −10% | 132 ± 6.1 mg/dL | 110 ± 5.4 mg/dL | – | −24 | strong toxicity | 33 | –
4 | CC(/C=C/[C@@]1(C)[C@H](C)CCC(=O)[C@@H]1C)=C\Cc1c(O)c(C=O)c(C)c(Cl)c1OCC(=O)O [Compound-14, 4-O-carboxymethylASC] | scarcely detected | – | −7% and −13% | 109 ± 2.8 mg/dL and 174 ± 4.9 mg/dL | 144 ± 7.2 mg/dL and 100 ± 4.4 mg/dL | – | – | – | – | 38
